# Patent US20030066100A1, “Capacitative calcium entry mechanism in porcine oocytes” (priority 2001, published 2003)
# Entries after “also recorded” stand apart in the source; their conditions may differ.
# Key:
# Format in all cases: cell-based
# porcine oocytes [1] = assay: Divalent cation influx after InsP3 injection, Mn2+-quench technique
# Protocol: (§1) The oocytes were loaded with the Ca^2+ indicator dye fura-2 by being incubated in the presence of 2 μM acetoxymethyl ester form of the dye and 0.02% pluronic F-127 (both from Molecular Probes, Inc., Eugene, Oreg.) for 40-50 minutes. After incubation the oocytes were rinsed, exposed to various treatments and the changes in the intracellular free Ca^2+ concentration ([Ca^2+]i) were followed using a Photoscan-2 photon counting fluorescent microscope system (Nikon Corp., Tokyo, Japan) as described by Macháty et al., Biol Reprod 1997a; 56:921-930. Fluorescence was recorded by calculating the ratio of fura-2 fluorescence at 510 mn excited by UV light alternatively at 340 and 380 nm. Intracellular free Ca^2+ levels are presented as fluorescent ratio values with ratios of 1.2 and 6.5 representing 65 and 602 nM Ca^2+, respectively.
# To induce the release of Ca^2+ from the intracellular stores, the second messenger InsP3 was injected into the oocytes' cytoplasm using a microinjector (Narishige Co. Ltd., Tokyo, Japan). InsP3 was dissolved in carrier medium consisting of 10 mM Hepes and 100 μM EGTA buffered at pH 7.0. The amount injected was about 40 pl, which is 4% of the total cytoplasmic volume of ˜1000 pl. Microinjection was performed in HEPES-TL-PVA on a heated stage of a Nikon Diaphot inverted microscope (Nikon Corp., Tokyo, Japan).
# The onset of a divalent cation influx after a Ca^2+ transient was investigated by using the manganese (Mn^2+)-quench technique disclosed by Hallam et al., Biochem. J. 1988; 255:179-184. Release of Ca^2+ from the intracellular stores was stimulated by intracellular injection of approximately 40 pl of 2.5 μM InsP3, the InsP3 receptor agonist. As a Ca^2+ surrogate, Mn^2+ was added to the external medium. Mn^2+ was reported to be able to translocate across the plasma membrane, bind fura-2 and quench its fluorescence. This technique enables measurement of divalent cation influx even when Ca^2+ release from the internal stores is coincident. The entry of Mn^2+ into the cell was monitored by imaging the resulting quench in fura-2 fluorescence at 510 nm excited alternatively at 340 and 360 nm. While the signal resulting from the 340 nm excitation is [Ca^2+]i sensitive, at 360 nm fura-2 fluorescence is independent of [Ca^2+]i and any decrease in fluorescence is due only to Mn^2+ entry.
# porcine oocytes [2] = assay: Ca2+ release by thapsigargin in Ca2+-free medium (fura-2 fluorescence)
# Protocol: as §1
# A Ca^2+ influx was generated in porcine oocytes by the depletion of the intracellular Ca^2+ stores. […] It is routinely used to drain the intracellular stores of their Ca^2+ content. Fura-2-loaded oocytes were incubated in Ca^2+-free HEPES-TL-PVA medium in the presence of 10-50 μM thapsigargin for 3 hours to deplete intracellular Ca^2+ stores. After washing in Ca^2+-free medium (to remove thapsigargin and ensure that the intracellular stores remain empty), normal Ca^2+-containing medium was added to the oocytes and the changes in the [Ca^2+]i were measured. […]
# porcine oocytes [3] = assay: Capacitative Ca2+ entry after store depletion and re-addition of Ca2+ (fura-2 fluorescence)
# Protocol: as §1
# A Ca^2+ influx was generated in porcine oocytes by the depletion of the intracellular Ca^2+ stores. […] It is routinely used to drain the intracellular stores of their Ca^2+ content. Fura-2-loaded oocytes were incubated in Ca^2+-free HEPES-TL-PVA medium in the presence of 10-50 μM thapsigargin for 3 hours to deplete intracellular Ca^2+ stores. After washing in Ca^2+-free medium (to remove thapsigargin and ensure that the intracellular stores remain empty), normal Ca^2+-containing medium was added to the oocytes and the changes in the [Ca^2+]i were measured. Oocytes incubated in Ca^2+-free HEPES-TL-PVA for 3 hours without thapsigargin were used to show the Ca^2+ entry under normal conditions, when the intracellular Ca^2+ stores were full.
# porcine oocytes [4] = assay: Capacitative Ca2+ entry in oocytes expressing Drosophila trp; conditions: 1 mM La3+
# Excerpt: The plasmid vector pBluescript KS, containing the Drosophila trp cDNA ctrp-9 downstream of the T7 promoter (a generous gift from C. Montell) was transfected into Escherichia coli DH5α cells. Plasmid DNA was isolated and linearized with the restriction endonuclease KpnI (Promega Corp., Madison, Wis.) and mRNA was transcribed from the cDNA with T7 polymerase using the RiboMAX™ Large Scale RNA Production System (Promega), following the manufacturer's recommendations. In order to produce capped RNA transcripts, the reaction was performed in the presence of 3 mM m^7G(5′)ppp(5′)G (Boehringer-Mannheim Corp., Indianapolis, Ind.). Purified RNA was precipitated with 0.3 M sodium acetate and ethanol. The pellet was resuspended in diethylpyrocarbonate (DEPC)-treated water containing RNasin (1 IU/μl; from Promega) to a final concentration of approximately 800 ng/μl and the samples were stored in 3 μl aliquots at −70° C.
# The Drosophila trp protein was expressed in porcine oocytes by injecting approximately 32 pg mRNA made by in vitro transcription of the cDNA and allowing 15 hours for translation. Control oocytes were injected with the carrier medium (DEPC-treated water). […] The baseline fluorescence of the oocytes was then recorded in Ca^2+-free HEPES-TL-PVA, and changes in [Ca^2+]i were measured for 20-30 minutes after the addition of Ca^2+-containing medium.
# [5] = 1 mM La3+, InsP3 microinjected, Mn2+ added
smiles,measurement,setting,value
"O=P(O)(O)O[C@@H]1[C@H](O)[C@H](O)[C@@H](OP(=O)(O)O)[C@H](OP(=O)(O)O)[C@H]1O [InsP3, inositol 1,4,5-trisphosphate]",oocytes with rapid decline in fluorescence well below the basal value (Mn2+ entry),"porcine oocytes [1]; InsP3 microinjected, 3 mM Mn2+ in the external medium",14/14
same,oocytes with transient elevation in fluorescence at 340 nm excitation (increase in [Ca2+]i),porcine oocytes [1]; injection of about 40 pl of 2.5 μM InsP3,16 out of 16
C/C=C(/C)C(=O)O[C@H]1C(C)=C2[C@H]([C@@H]1OC(=O)CCCCCCC)[C@@](C)(OC(C)=O)C[C@H](OC(=O)CCC)[C@@]1(O)[C@H]2OC(=O)[C@@]1(C)O [thapsigargin],change in [Ca2+]i,porcine oocytes [2]; 10-50 μM thapsigargin in Ca2+-free medium,induced an increase in [Ca^2+]i
same,increase in [Ca2+]i relative to 50 μM,"porcine oocytes [2]; 10 and 20 μM thapsigargin, Ca2+-free medium",slightly smaller increases in [Ca^2+]i
same,start of the increase in [Ca2+]i after adding the HEPES-TL-PVA medium,porcine oocytes [3]; after thapsigargin store depletion,0 to 300 s
same,oocytes showing Ca2+ entry (rise in [Ca2+]i) after re-addition of Ca2+,porcine oocytes [3]; stores emptied with thapsigargin for 3 hours in Ca2+-free medium,15 out of 18
"[La+3] [La^3+, lanthanum]",block of thapsigargin-evoked Ca2+ entry,porcine oocytes [3]; 1 mM La3+,totally inhibited; also recorded: completely blocked
same,oocytes in which thapsigargin-evoked Ca2+ entry was blocked,porcine oocytes [3]; 1 mM La3+,11/11
same,block of cation influx and decline in fluorescence at both wavelengths,porcine oocytes [1]; [5],totally blocked
same,oocytes in which fluorescence intensities stayed near the resting values,porcine oocytes [1]; [5],7/7
same,block of Ca2+ entry-evoked [Ca2+]i increase,porcine oocytes [4],completely blocked
